Consider 7 molecules from US7629332B2, “Nitrophenyl mustard and nitrophenylaziridine alcohols and their corresponding phosphates and their use as targeted cytotoxic agents” (Auckland Uniservices Limited, priority 2003, dated 2009).

Structures are written as SMILES. Entries after “also recorded” stand apart in the source; their conditions may differ.

For data set [1], the system named is WiDr (NTR+ve). The data set is described as follows: Cell proliferation (sulphorhodamine B) IC50, NTR-transfected WiDr human colon cells. The note with it: for WiDr WT:NTR IC50 Ratio: 4 h, sensitivity ratio for NTR expression; for IC50: WiDr, 4 h drug exposure, growth 5 further days. It counts as cell-based.
Data set [2] has as its system A549 (P450R+ve). Kind of data set: Cell proliferation (sulphorhodamine B) IC50, P450R-transfected A549 human lung cells, anoxia vs 20% O2. It counts as cell-based. The note with it: for A549 (P450R+ve) 20% O2/anoxia IC50 Ratio: 4 h, sensitivity ratio for hypoxia; for IC50: A549, 4 h drug exposure under 0% oxygen.
Data set [3] deals with WiDr human colon carcinoma xenografts (90% NTR-ve and 10% NTR+ve). Kind of data set: WiDr in vivo growth delay assay, mixed WiDr WT / WiDr NTR xenografts. The following applies: single dose at MTD (750 μmol/kg), xenografts treated at 300 mm3. From the text: FIG. 2a depicts in vivo activity of compound IIb-7 and its corresponding phosphate pre-prodrug, Ib-7P, against human colon carcinoma xenografts grown by inoculating mixtures of 90% NTR−ve and 10% NTR+ve Wi Dr cells;
FIG. 2b are plots of % animals survival versus time (days), in which open circles denote wild-type WiDR human colon carcinoma xenografts, and filled circles denote tumours containing WiDr cells transfected with the E. coli NTR gene;
In the WiDr in vivo growth delay assay, xenografts containing mixtures of WiDr^WT and WiDr^NTR cells are grown to 300 mm^3 and treated with a single dose of prodrug at its MTD. Tumour growth is monitored over time and animals are euthanased when mean tumour volume >1600 mm^3. Data is presented as time to death.

Data set [4] can be described thus: in vivo. The following applies: mouse.
Data set [5] has as its system SiHa human tumour xenografts. The data set is described as follows: SiHa xenograft excision / clonogenic assay, with or without 15 Gy radiation. It counts as in vivo. The following applies: 75% of MTD, single i.p. dose, no radiation, relative to vehicle controls, excision 18 h.
Data set [6] has as its system Rif-1 tumour. Kind of data set: In vivo excision assay with the Rif-1 tumour (15 Gy). How it is done: FIG. 1b depicts an excision assay method: 300-500 mg Rif-1 xenograft→ 15 Gy→ Single prodrug dose @ MTD→ 18 hr→ excision→ disaggregate→ plate 10^2-10^5 cells→ 12 days→ colonies counted;
This employs an in vivo excision assay with the Rif-1 tumour, where the oxic tumour cells are sterilised using 15 Gy of radiation, and the cytotoxicity of an agent against the remaining hypoxic cells can be quantitated. […] Thus Ib-7P acts as a hypoxia-selective cytotoxin in vivo.

Broadly, the IC50 is the point on the concentration scale where inhibition reaches its midpoint. In general, melting point refers to the temperature, or range, at which the solid turns liquid. `O=C(NCCO)c1cc([N+](=O)[O-])cc([N+](=O)[O-])c1N(CCCl)CCCl` [IIb-2, 2-[Bis(2-Chloroethyl)Amino]-N-(2-Hydroxyethyl)-3,5-Dinitrobenzamide] gave a melting point of 109 to 111 °C. In data set [1], the “WiDr WT:NTR IC50 Ratio” value stood at 47 and the half-inhibitory concentration (IC50) was 11800 nM. In addition, in data set [2], the “A549 (P450R+ve) 20% O2/anoxia IC50 Ratio” value was 20 and the midpoint of inhibition, the IC50, lay at 18000 nM.

In the case of `O=C(NCCO)c1cc([N+](=O)[O-])cc([N+](=O)[O-])c1N(CCBr)CCBr` [IIb-7, 2-[Bis(2-Bromoethyl)Amino]-N-(2-Hydroxyethyl)-3,5-Dinitrobenzamide], in data set [1], the “WiDr WT:NTR IC50 Ratio” value amounted to 61 and the half-inhibitory concentration (IC50) worked out at 300 nM. In data set [2], the “A549 (P450R+ve) 20% O2/anoxia IC50 Ratio” value is listed as 56 and the IC50 amounted to 800 nM. Besides, in data set [3], the over-all survival was 6% and the “time to first treatment failure” value is on record as 17 days. For the same molecule, the MTD in data set [4] is 1000 µmol/kg.

The molecule `O=C(NCCO)c1cc([N+](=O)[O-])cc([N+](=O)[O-])c1N(CCI)CCI` [IIb-14, 2-[Bis(2-Iodoethyl)Amino]-N-(2-Hydroxyethyl)-3,5-Dinitrobenzamide] showed a melting point of 129 to 131 °C. Moreover, in data set [1], the “WiDr WT:NTR IC50 Ratio” value stood at 12 and it took 800 nM to reach half-maximal inhibition (IC50). In data set [2], the “A549 (P450R+ve) 20% O2/anoxia IC50 Ratio” value is given as 27 and the half-inhibitory concentration (IC50) turned out to be 1000 nM.

In turn, `O=C(NCCCO)c1cc([N+](=O)[O-])cc([N+](=O)[O-])c1N(CCBr)CCBr` [IIb-8, 2-[Bis(2-Bromoethyl)Amino]-N-(3-Hydroxypropyl)-3,5-Dinitrobenzamide] had a melting point of 89 to 94 °C. Besides, in data set [1], the “WiDr WT:NTR IC50 Ratio” value stood at 13 and 400 nM corresponded to half-maximal inhibition (IC50). In addition, in data set [2], the “A549 (P450R+ve) 20% O2/anoxia IC50 Ratio” value was 24 and the IC50 is 1100 nM.

`O=C(NCCCCO)c1cc(N(CCBr)CCBr)c([N+](=O)[O-])cc1[N+](=O)[O-]` [IIa-9, N-(4-Hydroxybutyl)-5-[Bis(2-Bromoethyl)Amino]-2,4-Dinitrobenzamide] gave a melting point of 123 to 124 °C. Besides, in data set [1], the “WiDr WT:NTR IC50 Ratio” value is 58 and the concentration for half-maximal inhibition (IC50) was 6400 nM. For the same molecule, in data set [2], the “A549 (P450R+ve) 20% O2/anoxia IC50 Ratio” value is 9.4 and the half-inhibitory concentration (IC50) came out at 22000 nM.

For `O=C(NCCOP(=O)(O)O)c1cc([N+](=O)[O-])cc([N+](=O)[O-])c1N(CCBr)CCBr` [Ib-7P, 2-[[2-[Bis(2-Bromoethyl)Amino]-3,5-Dinitrobenzoyl]Amino]Ethyl Dihydrogen Phosphate], the “Log kill, cmpd only, Mean ± sem” value in data set [5] is listed as 1.20 ± 0.07. Also, in data set [6] (single dose at MTD after 15 Gy), the “Activity against hypoxic cells, Rif-1 excision assay” value is “exceed that of its parent alcohol (IIb-7); also recorded: more active against hypoxic cells than the reference hypoxic cytotoxin tirapazamine”. Besides, in data set [6] (single dose at MTD without radiation), the “Activity against oxic tumour cells, Rif-1 excision assay” value was “significant”. In data set [3], the over-all survival is 40% and the “time to first treatment failure” value came out at 77 days. This molecule displayed an MTD in data set [4] (CD-1 nude, ip) of 750 µmol/kg. In data set [4], this molecule displayed an MTD of 750 µmol/kg.

As to `CC(Br)CN(CC(C)Br)c1c(C(=O)NCCO)cc([N+](=O)[O-])cc1[N+](=O)[O-]` (stereo not drawn) [IIb-7a, 2-[Bis(2-Bromopropyl)Amino]-N-(2-Hydroxyethyl)-3,5-Dinitrobenzamide], the melting point was 127 to 130 °C. Also, in data set [1], the “WiDr WT:NTR IC50 Ratio” value was found to be 27 and 500 nM corresponded to half-maximal inhibition (IC50). Also, in data set [2], the “A549 (P450R+ve) 20% O2/anoxia IC50 Ratio” value worked out at 5.3 and the midpoint of inhibition, the IC50, lay at 1000 nM.
